Test results taken from patent publication US12637433B2, “Histone deacetylase inhibitors” (THE UNIVERSITY OF QUEENSLAND, priority 2020, dated 2026).

molecular target: T1, human HDAC1 enzyme (Homo sapiens, UniProt Q13547); assay: Human HDAC1 enzyme assay (Class I HDACs); type: biochemical; conditions: Table 8; recombinant human HDAC1; read-out: IC50 (nM) (HDAC1)
T1 construct: purchased BPS Bioscience
Procedure: The inhibitory effect of compounds on HDAC1 activity was assessed in vitro using an optimised assay performed in black/flat black wall 384-well plate (Corning Inc.). All reagents and compounds were prepared in HDAC1 assay buffer (25 mM Tris-HCl, 137 mM NaCl, 2.7 mM KCl, 1 mM MgCl2·H2O and 0.1 mg/mL bovine serum albumin; pH 8). Various concentrations of inhibitor were pre-incubated with 50 ng/mL human HDAC1 enzyme (BPS Bioscience) for 30 min at room temperature on a plate shaker. Substrate (Leu(Ac)-Gly-Lys(Ac)-AMC, 12 μM) were then added and incubated for 90 min at 37° C. in the dark. The enzymatic reaction was then incubated with the developer solution (1 mg/mL trypsin and 25 μM SAHA) for 15-20 min at room temperature. Fluorescence intensity was measured using PHERAstar plate reader (BMG Labtech) at 350 nm excitation and 460 nm emission.
Data analysis: Triplicate measurements were made for each data point and error bars represent mean±SEM of three independent experiments. All data were plotted and analysed using GraphPad Prism Version 6.0d for Mac OS X (GraphPad Software). Dose Response Curves plotted using 4 parameters logistic model.

T1 sequence (Q13547 whole entry): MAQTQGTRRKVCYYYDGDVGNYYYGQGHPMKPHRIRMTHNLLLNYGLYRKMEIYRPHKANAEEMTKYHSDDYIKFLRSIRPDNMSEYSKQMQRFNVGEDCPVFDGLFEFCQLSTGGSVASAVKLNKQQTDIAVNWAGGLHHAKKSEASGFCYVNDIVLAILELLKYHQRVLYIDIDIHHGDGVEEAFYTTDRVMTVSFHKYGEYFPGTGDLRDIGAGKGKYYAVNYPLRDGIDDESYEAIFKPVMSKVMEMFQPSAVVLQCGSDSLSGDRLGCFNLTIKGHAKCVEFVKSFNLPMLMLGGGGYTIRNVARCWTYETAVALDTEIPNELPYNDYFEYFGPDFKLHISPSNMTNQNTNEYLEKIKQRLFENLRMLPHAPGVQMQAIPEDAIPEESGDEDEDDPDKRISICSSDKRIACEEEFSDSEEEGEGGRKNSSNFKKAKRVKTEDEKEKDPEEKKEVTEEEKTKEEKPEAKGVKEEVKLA

| IC50 [nM] | SMILES |
| --- | --- |
| > 10000 | O=C(NO)c1ccc(Cn2c(=O)cc[nH]c2=O)cc1-c1ccccc1 [Example 38] |
| > 10000 | Cc1cc(=O)n(Cc2ccc(C(=O)NO)c(-c3ccccc3)c2)c(C)n1 [Example 45] |
| > 20000 | O=C(NO)c1ccc(CN2C(=O)c3ccncc3C2=O)cc1-c1ccccc1 [Example 54] |
| 33000 | O=C(NO)c1ccc(CN2Cc3ccccc3C2=O)cc1-c1ccccc1 [Example 49] |
| 16000 | O=C(NCc1ccc(C(=O)NO)c(-c2ccccc2)c1)c1ccccc1F [Example 50] |
| > 20000 | O=C(NO)c1ccc(CN2C(=O)CCC2=O)cc1-c1ccccc1 [Example 51] |
| 5280 ± 3490 | CCc1nc2ccccc2c(=O)n1Cc1ccc(C(=O)NO)c(-c2ccccc2)c1 [Example 35] |
| 28000 | O=C(NO)c1ccc(CN2C(=O)c3cccnc3C2=O)cc1-c1ccccc1 [Example 53] |

molecular target: T2, human HDAC7 enzyme (Homo sapiens, UniProt Q8WUI4); assay: Human HDAC7 enzyme assay (Class IIa HDACs); type: biochemical; conditions: Table 8; recombinant human HDAC7
T2 construct: purchased Reaction Biology Corp
T2 sequence (Q8WUI4 whole entry): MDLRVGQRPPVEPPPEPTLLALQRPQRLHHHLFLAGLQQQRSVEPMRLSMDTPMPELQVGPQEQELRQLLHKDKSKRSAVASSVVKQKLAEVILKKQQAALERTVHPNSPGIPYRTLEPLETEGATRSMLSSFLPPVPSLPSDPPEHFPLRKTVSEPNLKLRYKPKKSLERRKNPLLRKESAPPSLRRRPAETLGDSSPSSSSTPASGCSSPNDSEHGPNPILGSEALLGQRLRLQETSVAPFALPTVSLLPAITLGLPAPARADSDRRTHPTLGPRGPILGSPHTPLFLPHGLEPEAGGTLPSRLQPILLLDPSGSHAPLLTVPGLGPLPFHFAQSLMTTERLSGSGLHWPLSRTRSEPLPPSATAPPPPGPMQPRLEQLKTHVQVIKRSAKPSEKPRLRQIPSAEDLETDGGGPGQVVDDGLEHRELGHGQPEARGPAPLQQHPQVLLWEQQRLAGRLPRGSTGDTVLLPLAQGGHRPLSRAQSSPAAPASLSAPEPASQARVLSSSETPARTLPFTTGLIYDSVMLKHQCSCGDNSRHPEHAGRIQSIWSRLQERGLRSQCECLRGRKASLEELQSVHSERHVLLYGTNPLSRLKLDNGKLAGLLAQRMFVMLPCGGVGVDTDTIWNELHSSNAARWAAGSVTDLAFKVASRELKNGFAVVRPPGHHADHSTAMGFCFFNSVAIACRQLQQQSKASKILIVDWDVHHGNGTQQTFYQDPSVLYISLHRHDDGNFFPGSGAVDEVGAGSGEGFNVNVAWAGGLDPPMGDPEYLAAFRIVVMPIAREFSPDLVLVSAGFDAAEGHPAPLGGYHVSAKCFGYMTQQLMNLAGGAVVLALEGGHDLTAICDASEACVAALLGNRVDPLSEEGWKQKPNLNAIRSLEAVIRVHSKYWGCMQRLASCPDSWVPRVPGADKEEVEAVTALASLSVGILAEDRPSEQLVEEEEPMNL

| IC50 [nM] | SMILES |
| --- | --- |
| 8660 | Cc1nc2ccccc2c(=O)n1Cc1ccc(C(=O)NO)c(C2CC2)c1 [Example 106] |
| 178 ± 47 | O=C(NCc1ccc(C(=O)NO)c(-c2ccccc2Cl)c1)Nc1cccc2cccnc12 [Example 7] |
| 321 | O=C(NO)c1ccc(Nc2ccc3ccccc3c2)cc1-c1ccccc1 [Example 73] |
| 178 | O=C(NO)c1ccc(Nc2ccc(Cl)cc2)cc1-c1ccccc1 [Example 68] |
| 151 ± 52 | O=C(NCc1ccc(C(=O)NO)c(-c2ccccc2)c1)c1cccnc1 [Example 17] |
| 196 ± 66 | CCCCCCNC(=O)NCc1ccc(C(=O)NO)c(-c2ccccc2)c1 [Example 29] |
| 925 ± 865 | O=C(NCc1ccc(C(=O)NO)c(-c2ccccc2)c1)c1ccccc1NC(=O)C(F)(F)F [Example 22] |
| 101 ± 26 | CC(=O)Nc1ccc(C(=O)NCc2ccc(C(=O)NO)c(-c3ccccc3)c2)cc1 [Example 20] |
| 104 ± 21 | O=C(NCc1ccc(C(=O)NO)c(-c2ccccc2)c1)Nc1ccccc1 [Example 28] |
| 1590 | O=C(NO)c1ccc(NC(=O)C2(c3ccc4ccccc4c3)CCOCC2)cc1-c1ccccc1 [Example 93] |
| 64 ± 10 | CN(c1ccc(F)cc1)c1ccc(C(=O)NO)c(-c2ccccc2)c1 [Example 81] |
| 116 ± 27 | NC(=O)c1ccc(C(=O)NCc2ccc(C(=O)NO)c(-c3ccccc3)c2)cc1 [Example 21] |
| 1890 ± 431 | Cc1ccc(-c2cc(CNC(=O)Nc3cccc4cccnc34)ccc2C(=O)NO)cc1 [Example 11] |
| 649 | O=C(NO)c1ccc(Nc2cc(F)c(F)c(F)c2)cc1-c1ccccc1 [Example 70] |
| ≥ 10000 | Cc1nc2ccccc2c(=O)n1Cc1ccc(C(=O)N(C)O)c(-c2ccccc2)c1 [Example 100] |
| 243 | O=C(NO)c1ccc(NC(=O)C2(C(=O)Nc3ccccc3)CCCC2)cc1-c1ccccc1 [Example 89] |
| 658 ± 208 | O=C(O)c1ccc(CNCc2ccc(C(=O)NO)c(-c3ccccc3)c2)cc1-c1ccccc1 [Example 33, N-(4-hydroxyaminocarbonyl-3-phenylbenzyl)-N-(4-hydroxycarbonyl-3-phenylbenzyl)amine] |
| 431 | Cc1ccc(C(=O)Nc2ccc(C(=O)NO)c(-c3ccccc3)c2)cc1 [Example 62] |
| 78 ± 21 | CC(=O)Nc1cccc(C(=O)NCc2ccc(C(=O)NO)c(-c3ccccc3)c2)c1 [Example 19] |
| 81 ± 19 | Cc1ccc(Nc2ccc(C(=O)NO)c(-c3ccccc3)c2)cc1 [Example 76] |
| 945 | Nc1ccc(C(=O)NO)c(-c2ccccc2)c1 [Example 99] |
| 447 ± 177 | O=C(NO)c1ccc(Nc2ncccn2)cc1-c1ccccc1 [Example 83] |
| > 10000 | COc1ccc(-c2cc(CNC(=O)Nc3cccc4cccnc34)ccc2C(=O)NO)cc1 [Example 102] |

| IC50 [nM] | SMILES |
| --- | --- |
| 123 ± 39 | O=C(NCc1ccc(C(=O)NO)c(-c2ccccc2)c1)c1ccccc1 [Example 15] |
| 323 | COc1ccc(C(=O)Nc2ccc(C(=O)NO)c(-c3ccccc3)c2)cc1 [Example 63] |
| 54 ± 7 | CC(C)(C)OC(=O)c1ccc(Nc2ccc(C(=O)NO)c(-c3ccccc3)c2)cc1 [Example 75] |
| 64 ± 12 | O=C(NCc1ccc(C(=O)NO)c(-c2cccc(F)c2)c1)Nc1cccc2cccnc12 [Example 5] |
| > 10000 | COc1cccc(-c2cc(CNC(=O)Nc3cccc4cccnc34)ccc2C(=O)NO)c1 [Example 103] |
| 165 ± 45 | O=C(NCc1ccc(C(=O)NO)c(-c2ccccc2)c1)c1cnc[nH]1 [Example 94] |
| 325 | O=C(Nc1ccc(C(=O)NO)c(-c2ccccc2)c1)c1ccccc1 [Example 60] |
| 960 ± 225 | O=C(NO)c1ccc(CNC(=O)C2CCCN2)cc1-c1ccccc1 (stereo not shown) [Example 27] |
| 3130 ± 1730 | C[C@H](N)C(=O)NCc1ccc(C(=O)NO)c(-c2ccccc2)c1 [Example 92] |
| 625 ± 318 | O=C(NO)c1ccc(NC(=O)C2(c3c[nH]c(-c4ccc([N+](=O)[O-])cc4)n3)CCCC2)cc1-c1ccccc1 [Example 85] |
| 100 ± 18 | CC1C(=O)N(C2CCCCC2)C(=O)N1Cc1ccc(C(=O)NO)c(-c2ccccc2)c1 (stereo not shown) [Example 98] |
| 125 ± 26 | Cc1ccccc1-c1cc(CNC(=O)Nc2cccc3cccnc23)ccc1C(=O)NO [Example 9] |
| 74 ± 13 | CC1C(=O)Nc2ccccc2C(=O)N1Cc1ccc(C(=O)NO)c(-c2ccccc2)c1 (stereo not shown) [Example 97] |
| 152 ± 40 | O=C(NCc1ccc(C(=O)NO)c(-c2ccccc2F)c1)Nc1cccc2cccnc12 [Example 4] |
| 205 ± 47 | O=C(NCc1ccc(C(=O)NO)c(-c2ccccc2)c1)c1ccncc1 [Example 18] |
| 233 ± 95 | O=C(NO)c1ccc(Nc2cnccn2)cc1-c1ccccc1 [Example 84] |
| 248 | O=C(Nc1ccccc1)Nc1ccc(C(=O)NO)c(-c2ccccc2)c1 [Example 86] |
| 322 ± 109 | CC1C(=O)NC(Cc2ccccc2)C(=O)N1Cc1ccc(C(=O)NO)c(-c2ccccc2)c1 (mixture of isomers) [Example 96] |
| 1470 ± 426 | O=C(NO)c1ccc(CNCc2ccccc2)cc1-c1ccccc1 [Example 30, 5-((benzylamino)methyl)-N-hydroxy-[1,1′-biphenyl]-2-carboxamide] |
| > 10000 | O=C(NCc1ccc(C(=O)NO)c(-c2cn[nH]c2)c1)Nc1cccc2cccnc12 [Example 104] |
| 94 | O=C(NO)c1ccc(Nc2ccccc2)cc1-c1ccccc1 [Example 66] |
| 249 | O=C(NO)c1ccc(Nc2ccccn2)cc1-c1ccccc1 [Example 82] |
| 241 | O=C(NO)c1ccc(NC(=O)C2(C(=O)Nc3ccccc3)CC2)cc1-c1ccccc1 [Example 87] |

| IC50 [nM] | SMILES |
| --- | --- |
| 168 | O=C(NO)c1ccc(NC(=O)C2(C(=O)Nc3ccccc3)CCCCC2)cc1-c1ccccc1 [Example 90] |
| 118 ± 21 | O=C(NCc1ccc(C(=O)NO)c(-c2ccc(F)cc2)c1)Nc1cccc2cccnc12 [Example 6] |
| 914 ± 204 | O=C(NO)c1ccc(CNCc2ccc[nH]2)cc1-c1ccccc1 [Example 95] |
| 75 ± 23 | O=C(NO)c1ccc(NC(=O)C2(C(=O)Nc3ccccc3)CCC2)cc1-c1ccccc1 [Example 88] |
| 238 ± 86 | O=C(Cc1c[nH]c2ccccc12)NCc1ccc(C(=O)NO)c(-c2ccccc2)c1 [Example 25] |
| 645 | O=C(Nc1ccc(C(=O)NO)c(-c2ccccc2)c1)c1ccc(F)cc1 [Example 61] |
| > 10000 | O=C(NO)c1ccc(Nc2ccc(-c3ccccc3)cc2)cc1-c1ccccc1 [Example 72] |
| 206 | O=C(NO)c1ccc(Nc2cc(F)cc(F)c2)cc1-c1ccccc1 [Example 71] |
| 61 ± 9 | COc1ccc(Nc2ccc(C(=O)NO)c(-c3ccccc3)c2)cc1 [Example 77] |
| 886 ± 192 | O=C(NCc1ccc(C(=O)NO)c(-c2cccc(Cl)c2)c1)Nc1cccc2cccnc12 [Example 8] |
| > 10000 | Nc1ccc(-c2cc(CNC(=O)Nc3cccc4cccnc34)ccc2C(=O)NO)cc1 [Example 105] |
| 108 ± 34 | O=C(NCc1ccc(C(=O)NO)c(-c2ccccc2)c1)c1ccccn1 [Example 16] |
| ≥ 10000 | CONC(=O)c1ccc(Cn2c(C)nc3ccccc3c2=O)cc1-c1ccccc1 [Example 101] |
| 175 ± 26 | O=C(NO)c1ccc(Oc2ccc(F)cc2)cc1-c1ccccc1 [Example 80] |
| 88 | O=C(NO)c1ccc(Nc2ccc(F)cc2)cc1-c1ccccc1 [Example 67] |
| 125 ± 22 | O=C(NO)c1ccc(CNCc2ccc(C(=O)NO)c(-c3ccccc3)c2)cc1-c1ccccc1 [Example 31, bis(4-hydroxyaminocarbonyl-3-phenylbenzyl)amine] |
| 5 ± 1 | O=C(NO)c1ccc(C(n2cc(-c3ccccc3)nn2)n2cc(-c3ccccc3)nn2)cc1-c1ccccc1 [Example 58] |
| 582 ± 104 | O=C(NO)c1c(F)cc(CN2C(=O)c3ccccc3S2(=O)=O)cc1-c1ccccc1 [Example 57b] |
| 578 | O=C(NO)c1ccc(Nc2ccc(C(F)(F)F)cc2)cc1-c1ccccc1 [Example 69] |
| 68 ± 15 | O=C(O)c1ccc(Nc2ccc(C(=O)NO)c(-c3ccccc3)c2)cc1 [Example 74] |
| 137 ± 30 | COC(=O)c1ccc(CNCc2ccc(C(=O)NO)c(-c3ccccc3)c2)cc1-c1ccccc1 [Example 32, N-(4-hydroxyaminocarbonyl-3-phenylbenzyl)-N-(4-methoxycarbonyl-3-phenylbenzyl)amine] |
| > 10000 | Cc1cccc(-c2cc(CNC(=O)Nc3cccc4cccnc34)ccc2C(=O)NO)c1 [Example 10] |
